# Experimental data taken from PubChem BioAssay AID743267 (Broad Institute, 2014).
# Where “and” joins values, the source holds several entries; their conditions need not be identical. Identical values can stand only once.
# Test system: human bronchial epithelial cells, CFTR corrector, plate reader
# Experiment: rescue of ΔF508 CFTR function, airway epithelium – human bronchial epithelial cells, plate reader, cherry-pick, two tests, dose response (AID 743267)
# Settings: measured here: test 1 replicate run
row,SMILES,AC50 [µM]
1,C[C@@H]1CN([C@@H](C)CO)C(=O)Cc2cc(N(C)C)ccc2O[C@@H]1CN(C)Cc1ccc(C(=O)Nc2ccccc2N)cc1,10.3
2,COc1ccc(NC(=O)N(C)C[C@@H]2Oc3cc(C#CCC(C)C)ccc3S(=O)(=O)N([C@H](C)CO)C[C@@H]2C)cc1,16
3,COc1ccc(S(=O)(=O)N2CC[C@@H]3[C@@H](CO)Nc4ccc(-c5cccc(C#N)c5)cc4[C@@H]32)cc1,16
4,O=C1CN(S(=O)(=O)Cc2ccccc2)C[C@@H]2[C@@H](c3ccc(C#Cc4cccc(F)c4)cc3)[C@H](CO)N12,16

# Same assay, conditions: measured here: test 2 replicate run
row,SMILES,AC50
1,Oc1ccc2ccccc2c1/C=C/c1ccc2c(Br)cc(Br)c(O)c2n1,21.5 µM
2,Nc1ccc2ccc3cccc[n+]3c2c1,21.3 µM
3,CCN(CC)c1ccc(/C=N/NC(=O)c2cnccn2)cc1,2.12 µM
4,Brc1ccc2c(c1)C(C1=NCCN1)c1ccccc1CS2 (stereo not given),16 µM
5,O=C(NCCCN1CCOCC1)c1cc(S(=O)(=O)N2CCOCC2)c(Cl)cc1Cl,> 50 µM
6,O=[N+]([O-])c1ccc(Sc2cccc[n+]2[O-])c2nonc12,12.7 µM
7,O=C(N/N=C/c1cccs1)c1cccc(NC(=O)c2ccccc2Cl)c1,0.985 µM
8,CCc1ccccc1N(C)S(=O)(=O)c1ccc(-c2cc(C)no2)s1,6.87 µM
9,Clc1ccc(Nc2ccc3ccccc3n2)cc1,8.45 µM
10,COc1cc(OC)c2c(-c3cccc(-c4cccc(N)c4)c3)cc(=O)oc2c1,3.43 µM
11,COc1ccc(CNCC(=O)Nc2ccccc2-n2cccc2)cc1,6.21 µM
12,NS(=O)(=O)c1ccc(S(=O)(=O)N(CCc2ccccc2)Cc2ccccn2)cc1,< 0.0235 µM
13,C/C(=N\NC(=O)c1c(Cl)c(C)nn1C)c1ccc(NC(=O)C2CCC2)cc1,1.1 µM
14,O=c1cc(-c2ccccc2)[nH]c2ccc(F)cc12,> 50 µM
15,COc1ccc(OC)c(C2CC(c3ccccc3)=NN2C(=S)Nc2ccccc2)c1 (stereo not given),8.44 µM
16,Nc1nn(-c2ccccc2)c(N)c1N=Nc1cccc(F)c1,2.04 µM
17,C=C1C(=O)O[C@@H]2C[C@@H](C)[C@@H]3C=CC(=O)[C@@]3(C)[C@@H](O)[C@H]12,0.989 µM
18,O=C1/C(=C\c2ccc(O)cc2)SC(=S)N1Cc1ccccc1,20.5 µM
19,Cc1cccc(N2CCN(C(=O)c3ccc4[nH]c(C)c(C)c4c3)CC2)c1C,1.85 µM
20,O=C(Cc1ccc(Br)cc1)NCc1ccccc1,4.85 µM
21,Cc1cc(C(=O)N2CC=C(c3ccccc3)CC2)c2ccccc2n1,0.66 µM
22,COc1ccccc1NC(=O)C(=O)NCC(c1ccco1)N1CCc2ccccc21 (stereo not given),> 50 µM

row,SMILES,AC50
1,COc1ccccc1/C=C/C=N/NC(=O)CCn1cnc2ccccc21,8.01 µM
2,COc1ccc([C@H]2CC(=O)C=C(c3c(OC)cccc3OC)C2)cc1,6.28 µM
3,COc1ccc(/C=C2\SC(=O)N(CCNC(=O)C3=COCCO3)C2=O)cc1,1.84 µM
4,CC(=O)O[C@H]1C(=O)[C@@]2(C)C([C@H](OC(=O)c3ccccc3)[C@]3(O)C[C@H](OC(=O)[C@H](O)[C@@H](NC(=O)c4ccccc4)c4ccccc4)C(C)=C1C3(C)C)[C@]1(OC(C)=O)CO[C@@H]1C[C@H]2O (stereo not given in full),5.6 µM
5,COc1ccc(OC)c(Nc2cc(C)nc3ccc(C)cc23)c1,10.7 µM
6,CCCC(=O)Nc1nc2ccc(NC(=O)c3c(F)c(F)c(OC)c(F)c3F)cc2s1,1.13 µM
7,COc1ccc(Nc2nc3cc(-c4sccc4C)sc3c(=O)n2C)cc1OC,2.15 µM
8,Cc1ccc2c(c1)CCCN2C(=O)CCc1nc2ccccc2c(=O)[nH]1,5.42 µM
9,CCOC(=O)N1CCC(NC(=O)c2ccc3c(c2)N=C(C)c2c(C)ccc(C)c2S3)CC1,1.67 µM
10,COc1cc(C(=O)Nc2ccc(C)cc2)c2ccccc2n1,1.26 µM
11,C#C[C@]1(O)CC[C@H]2[C@@H]3CCc4cc(OC)ccc4[C@H]3CC[C@@]21C,2.48 µM
12,Cn1nccc1C(=O)N/N=C/c1c(O)ccc2ccccc12,19.2 µM
13,Cc1cccc(N(C)S(=O)(=O)c2ccc(-c3cc(C)no3)s2)c1,0.738 µM
14,COc1ccc(-c2oc3ccc(-c4cc(OC)c(OC)c(OC)c4)cc3c2C#Cc2ccccn2)cc1,26.7 µM
15,CCOP(=O)(C#Cc1ccccc1)C(O)c1ccc(Br)cc1 (stereo not given),> 50 µM
16,O=C1c2cccc3c(O)ccc(c23)C(=O)N1c1ccc(Cl)cc1,16.8 µM
17,COc1ccc(OC)c(Nc2nc(-c3sc(NC(=O)C(C)(C)C)nc3C)cs2)c1,2.78 µM
18,O=S1(=O)CCN(C(CO)c2ccccc2)CC1 (stereo not given),43.3 µM
19,CC[C@H]1CN2CCC1C[C@H]2[C@H](O)c1ccnc2ccc(OC)cc12 (stereo not given in full),12.9 µM
20,Cc1ccc(Nc2nc(-c3sc(C)nc3C)cs2)cc1,0.812 µM
21,N#CCC(=O)N/N=C/c1cn(Cc2cccc3ccccc23)c2ccccc12,2.86 µM
22,COCCCNc1nnc(Cc2ccc(Cl)cc2)c(=O)[nH]1,3.78 µM

row,SMILES,AC50
1,Oc1cccc(/C=N/Nc2ccc(Cl)nn2)c1O,16 µM
2,O=C(/C=C/c1ccco1)NC(=S)Nc1nc(-c2ccc3ccccc3c2)cs1,3.34 µM
3,C[n+]1c2cc(N)ccc2cc2ccc(N)cc21,3.52 µM and 2.96 µM
4,COc1cc(/C=C2/SC(=Nc3ccc(O)cc3)NC2=O)cc(OC)c1O,8.92 µM
5,CC(OC(=O)CCCC(=O)Nc1ccc(F)cc1)C(=O)c1ccccc1 (stereo not given),> 50 µM
6,O=C1CCC(CCc2nc3ccccc3[nH]2)(c2ccccc2)C(=O)N1 (stereo not given),36.3 µM
7,COc1cc(OC)c2c(-c3cccc(-c4ccc(OC)c(OC)c4)c3)cc(=O)oc2c1,0.594 µM
8,CCOC(=O)CSC1=C(C#N)C(c2ccc(C)s2)CC(=O)N1 (stereo not given),5.6 µM
9,CCN(CC)CCn1c2ccccc2c2nc3ccccc3nc21,11.3 µM
10,Clc1cccc(-c2ccc(C=Nc3ccc(N4CCOCC4)cc3)o2)c1Cl,> 50 µM
11,COc1cccc(Sc2ccccc2/C=N/NC(N)=O)c1,41.6 µM
12,COCOc1cccc(CN2CCC2(C)C(=O)Nc2ccc(C)c(O)c2)c1 (stereo not given),> 50 µM
13,COc1ccc2sc3cccc(NCCN(C)C)c3c(=O)c2c1,8.47 µM
14,Cc1ccc(/C=N/NC(=O)C2COc3ccccc3O2)s1 (stereo not given),7.28 µM
15,CCOC(=O)C1CCCN(c2ccc([N+](=O)[O-])c3nonc23)C1 (stereo not given),20.7 µM
16,COc1cc2c(cc1OC)C(C)N(C(=O)Nc1cc(C)cc(C)c1)CC2 (stereo not given),3.03 µM
17,Cc1cc(NCc2ccccn2)n2nc(C)c(-c3ccccc3)c2n1,4.77 µM
18,COc1cc(NC(=O)c2csc(N)n2)cc(C(=O)Nc2cccc(C(F)(F)F)c2)c1,16 µM
19,CCC(=O)NC(c1ccc(C)cc1)c1ccc2cccnc2c1O (stereo not given),> 50 µM
20,O=C(CCc1ccccc1)NCC(c1ccco1)N1CCc2ccccc21 (stereo not given),4.6 µM
21,Cc1ccc(N2C(=O)c3cccc4c([N+](=O)[O-])ccc(c34)C2=O)c2cccnc12,18.8 µM
22,CC(C)(C)C1COc2ccccc2N1C(=O)c1cccc(Cl)c1 (stereo not given),1.63 µM

row,SMILES,AC50
1,N#CC(C#N)=C1C=C2C=C(N3CCCCCC3)CCC2CC1 (stereo not given),0.239 µM
2,CCOC(=O)c1ccc(N2CCOCC2)c(NC(=O)c2c(-c3ccccc3)noc2C)c1,4.89 µM
3,COc1ccc(OC)c(N/C(N)=N/c2nc(C)cc(C)n2)c1,39.4 µM
4,Cn1cc(C(=O)N/N=C/c2ccc3c(c2)OCO3)c2ccccc21,9.88 µM
5,N#CC1=C(N)OC2=C(CCc3ccccc32)C1c1ccccc1Cl (stereo not given),2.61 µM
6,O=C1NC(=O)C(=Cc2ccc(N3CCOCC3)o2)C(=O)N1,> 50 µM
7,NS(=O)(=O)c1ccc(NNC(=O)c2ccc(Br)o2)c([N+](=O)[O-])c1,8.91 µM
8,COC(=O)COc1cccc2c(=O)n(CC(=O)NCc3ccccc3)ccc12,5.25 µM
9,CCN(CC)C1=CC2=CC(=C(C#N)C#N)CCC2CC1 (stereo not given),0.948 µM
10,Cc1cccc(N2CCN(Cc3cn(C)nc3-c3ccccc3F)CC2)n1,2.43 µM
11,COc1ccc(C2=Nn3c(nnc3-c3ccccc3OC)SC2)cc1OC1CCOC1 (stereo not given),0.973 µM
12,CC(=Nc1ccccc1O)c1sc2ccccc2c1O,11.8 µM
13,NC(=S)NN=Cc1nccc2c(N)cccc12,3.21 µM
14,C=CC(C)(C)c1[nH]cnc1/C=C1\NC(=O)C(C(C)C)NC1=O (stereo not given),40.2 µM
15,COc1cc(/C=C(\C#N)C(=O)c2c[nH]c3ccccc23)cc(OC)c1O,8.32 µM
16,COc1cccc(N2CCN(C(=O)c3ccc(CS(=O)c4ccc(Cl)cc4)o3)CC2)c1 (stereo not given),1.48 µM
17,COC(=O)C1=CN(c2ccc(OC)cc2OC)C(N)=C(C#N)C1c1ccccc1F (stereo not given),1.23 µM
18,COc1ccccc1Cc1c(-c2ccc(Cl)cc2)nc2ccc(Br)cn12,8.16 µM
19,CCOC1=C2CN(S(=O)(=O)c3ccc(C)cc3)CC[C@@H]2N(S(=O)(=O)c2ccc(C)cc2)[C@H](c2ccccc2)C1,4.47 µM
20,COc1cc(OC)cc(-c2cc3ccc(OC)cc3cn2)c1,43.6 µM
21,COc1cc(/C=C/C(=O)c2ccc3c(c2)OCO3)cc(Cl)c1O,15.6 µM
22,O=Nc1ccc(O)c2ncccc12,3.57 µM

row,SMILES,AC50
1,O=C(Nc1cccc(C2=NCCN2)c1)Nc1cccc(C2=NCCN2)c1,20.7 µM
2,Cc1ccc(S(=O)(=O)N2C[C@H]3[C@H]4C(=O)N(C)C(=O)[C@H]4CC(=O)[C@H]3[C@@H]2c2ccccc2F)cc1,37.1 µM
3,Cc1cccc(N2CCN(S(=O)(=O)c3cc(-c4cc(C)no4)ccc3C)CC2C)c1 (stereo not given),2.57 µM
4,O=C(Nc1ccc(Cl)cn1)c1cccc2ccccc12,8.46 µM
5,COc1cc(/C=C(\C#N)c2nc3ccccc3[nH]2)cc(OC)c1O,7.88 µM
6,C#C[C@]1(O)CC[C@H]2[C@@H]3CCc4cc(OC5CCCC5)ccc4[C@H]3CC[C@@]21C,3.31 µM
7,Cc1ccccc1-c1nc(CS(=O)(=O)CC(=O)NCc2ccccc2)c(C)o1,> 50 µM
8,Cc1cccc(NC(=S)N/N=C/c2cccc(O)c2)c1C,3.86 µM
9,Cc1ccc(/C=N/NC(=O)c2ccc3ccccc3c2)s1,2.05 µM
10,Clc1ccc(SCc2cc(N3CCOCC3)nc(-c3ccccn3)n2)cc1,4.5 µM
11,O=C(NC(=S)Nc1ccc(-c2ccccc2)cc1)c1ccccc1,> 50 µM
12,CCOc1ccc(-c2cc(C(=O)N/N=C/c3ccc(O)cc3)c3ccccc3n2)cc1,16 µM
13,COc1cccc2c1C(=O)c1c(O)c3c(c(O)c1C2=O)CC(O)(C(=O)CO)CC3OC1CC(N(C)C)C(O)C(C)O1 (stereo not given),10.1 µM
14,COc1ccccc1Nc1c2c(nc3ccccc13)CCC2,6.89 µM
15,COc1cccc(N=Nc2ccc3cccnc3c2O)c1,> 50 µM
16,CCOc1ccc(-c2cc(C(=O)N3CCN(c4ccccn4)CC3)c3ccccc3n2)cc1,16 µM
17,CN(CCOc1ccc(Cl)cc1)C(=O)c1cccc(S(=O)(=O)N2CCN(c3ccccc3)CC2)c1,16 µM
18,NS(=O)(=O)c1ccc(NC(=O)c2cccc3cc4ccccc4nc23)cc1,4.75 µM
